# What was measured:
# [1] = molecular target: T1, GRX-C2 (Arabidopsis thaliana, UniProt Q9FNE2); assay: HED assay, NADPH oxidation at […] nm; format: biochemical; details: 2 mM GSH, 0.7 mM HED, 1 µM GR, 0.1 µM GRX, pH 7.5, RT
# T1 construct: gene GRXC2
# [2] = molecular target: T2, GAPC2 (Arabidopsis thaliana, UniProt Q9FX54); assay: NADH consumption at […] nm, PGK-coupled; format: biochemical; details: 8 mM 3-PGA, 4 mM ATP, 90 nM PGK, pH 7.8, RT
# T2 construct: His10-tagged, E. coli, Ni-NTA
# [3] = molecular target: T3, TRX-h5 (Arabidopsis thaliana, UniProt Q39241); assay: coupled GPXL8 H2O2 reduction, NADPH oxidation at […] nm; format: biochemical; details: covalent; 20 µM reduced protein preincubated with 150 µM OPDA 1 h, then 0.25 µM in NTRA/GPXL8 assay, pH 7.5
# T3 construct: gene TRX5
# T3 sequence (Q39241 1-118 limits assumed): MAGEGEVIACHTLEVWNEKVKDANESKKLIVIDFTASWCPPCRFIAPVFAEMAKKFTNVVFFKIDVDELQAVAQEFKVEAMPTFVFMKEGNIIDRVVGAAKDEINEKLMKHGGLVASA
# [4] = molecular target: T4, PRXIIB (Arabidopsis thaliana, UniProt Q9XEX2); assay: coupled H2O2 reduction (GR/GSH/GRXC2), NADPH oxidation at […] nm; format: biochemical; details: 20 µM reduced PRXIIB preincubated with 150 µM OPDA 1 h, then 3 µM in assay, pH 7.5; weak effect
# T4 sequence (Q9XEX2 1-162): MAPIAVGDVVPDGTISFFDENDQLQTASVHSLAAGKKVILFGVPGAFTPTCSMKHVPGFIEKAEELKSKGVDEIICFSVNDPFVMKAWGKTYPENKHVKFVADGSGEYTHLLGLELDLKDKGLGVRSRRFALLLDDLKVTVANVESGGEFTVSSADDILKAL
# [5] = molecular target: T5, TRX-f1 (Arabidopsis thaliana, UniProt Q9XFH8); assay: HPLC depletion of free OPDA, mPEG-maleimide shift; format: binding; details: covalent; 200 µM OPDA, 50 or 100 µM reduced protein, pH 7.2, at least 2 h, RT
# T5 construct: gene At3g02730; His-tagged, E. coli, Ni-NTA
# T5 sequence (Q9XFH8 58-178): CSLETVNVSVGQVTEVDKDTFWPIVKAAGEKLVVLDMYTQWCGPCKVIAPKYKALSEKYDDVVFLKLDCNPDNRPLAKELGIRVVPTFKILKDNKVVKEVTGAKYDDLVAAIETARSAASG
# [6] = molecular target: T6, TRX-m4 (Arabidopsis thaliana, UniProt Q9SEU6); assay: HPLC depletion of free OPDA, mPEG-maleimide shift; format: binding; details: covalent; 200 µM OPDA, 50 or 100 µM reduced protein, pH 7.2, at least 2 h, RT
# T6 construct: gene At3g15360; His-tagged, E. coli, Ni-NTA
# T6 sequence (Q9SEU6 83-193): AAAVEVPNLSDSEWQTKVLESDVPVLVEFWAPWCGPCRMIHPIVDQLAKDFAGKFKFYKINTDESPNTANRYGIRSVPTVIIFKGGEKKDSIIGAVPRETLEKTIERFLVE
# [7] = molecular target: T7, TRX-h3 (Arabidopsis thaliana, UniProt Q42403); assay: coupled GPXL8 H2O2 reduction, NADPH oxidation at […] nm; format: biochemical; details: covalent; 20 µM reduced protein preincubated with 150 µM OPDA 1 h, then 0.25 µM in NTRA/GPXL8 assay, pH 7.5
# T7 construct: gene TRX3
# T7 sequence (Q42403 1-118 limits assumed): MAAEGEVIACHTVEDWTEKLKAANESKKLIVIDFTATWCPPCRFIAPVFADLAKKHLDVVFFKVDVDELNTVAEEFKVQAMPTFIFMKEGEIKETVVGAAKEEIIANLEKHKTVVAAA
# [8] = molecular target: T6, TRX-m4; assay: as above; format: biochemical; details: covalent; 20 µM reduced protein preincubated with 150 µM OPDA 1 h, then 5 µM in NTRA/GPXL8 assay, pH 7.5
# [9] = molecular target: T3, TRX-h5; assay: HPLC depletion of free OPDA, mPEG-maleimide shift; format: binding; details: covalent; 200 µM OPDA, 50 or 100 µM reduced protein, pH 7.2, at least 2 h, RT
# T2 sequence (Q9FX54 whole entry): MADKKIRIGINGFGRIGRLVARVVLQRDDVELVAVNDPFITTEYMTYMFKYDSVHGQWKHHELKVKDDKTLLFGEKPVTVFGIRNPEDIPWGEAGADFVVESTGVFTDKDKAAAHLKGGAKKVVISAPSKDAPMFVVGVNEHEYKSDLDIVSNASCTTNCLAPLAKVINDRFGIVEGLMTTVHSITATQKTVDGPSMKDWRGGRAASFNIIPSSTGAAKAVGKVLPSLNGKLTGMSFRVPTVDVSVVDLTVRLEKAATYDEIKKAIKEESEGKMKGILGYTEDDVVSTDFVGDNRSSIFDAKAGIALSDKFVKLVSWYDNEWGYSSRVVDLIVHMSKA
# T1 sequence (Q9FNE2 whole entry): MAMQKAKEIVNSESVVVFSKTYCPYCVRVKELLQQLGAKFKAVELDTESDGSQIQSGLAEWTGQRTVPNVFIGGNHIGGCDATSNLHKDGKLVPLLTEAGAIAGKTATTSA
smiles,measurement,setting,value
"OCCSSCCO [HED, hydroxyethyldisulfide]","HED assay, NADPH oxidation at 340 nm",[1],HED assay to determine GRX-dependent reduction activity
NC(=O)C1=CN([C@@H]2O[C@H](COP(=O)(O)OP(=O)(O)OC[C@H]3O[C@@H](n4cnc5c(N)ncnc54)[C@H](O)[C@@H]3O)[C@@H](O)[C@H]2O)C=CC1 [NADH],"NADH consumption at 340 nm, PGK-coupled",[2],coupled activity of phosphoglycerate kinase and GAPDH was measured as consumption of NADH
"CC/C=C\C[C@@H]1C(=O)C=C[C@@H]1CCCCCCCC(=O)O [OPDA, cis-(+)-12-oxophytodienoic acid]",inhibition,[3],~ 80%
same,inhibition,[4],OPDA seems to act directly on PRXIIB at a low level
same,"HPLC depletion of free OPDA, mPEG-maleimide shift",[5],three thiols in the case of TRX-f1 and TRX-m4
same,"HPLC depletion of free OPDA, mPEG-maleimide shift",[6],three thiols in the case of TRX-f1 and TRX-m4
same,inhibition,[7],~ 80%
same,inhibition,[8],~ 60%
same,"HPLC depletion of free OPDA, mPEG-maleimide shift",[9],two thiols reacted with OPDA in the case of TRX-h3 and TRX-h5

# Reference: paper PMC9137622, “OPDAylation of Thiols of the Redox Regulatory Network In Vitro” (Antioxidants, 2022)
